Entries after “also recorded” stand apart in the source; their conditions may differ.
How the values were obtained:
Format in all cases: in vivo, human
[1] = Multiple escalating dose study, plasma pharmacokinetics of oral suspension (Cohorts 1-3)
Description: Healthy subjects aged 18 to 55 years were treated with an oral suspension of Compound 1 to study the safety, tolerability, pharmacokinetics and pharmacodynamics of Compound 1 in healthy subjects.
The study was a randomized, double-blind, placebo-controlled multiple escalating dose study comprised of 3 cohorts that each received an oral suspension. Each cohort consisted of two groups: one group treated with Compound 1 and another treated with placebo. In each cohort, the ratio of Compound 1-treated subjects to placebo-treated subjects was 3:1.
The Compound 1-treated subjects of Cohort 1 were treated with 15.0 mg of Compound 1 once per day (QD). The Compound 1-treated subjects of Cohort 2 were treated with 30.0 mg of Compound 1 QD. The Compound 1-treated subjects of Cohort 3 were treated with 60.0 mg of Compound 1 QD.
Patients in each cohort were treated with Compound 1 for 14 consecutive days, unless dosing was halted by the Safety Review Committee (SRC). The dosing of subjects in each of the cohorts was staggered with the decision to dose escalate based on SRC review of a minimum of 14 days of observation of safety and tolerability data and review of the available plasma PK data from the preceding cohort(s). Thus, dose escalation was predicated on tolerability of the prior cohorts.
Compound 1 was administered under fasted conditions (no food or drink, except water, for at least 10 hours prior to dosing). Immediately after administration of Compound 1, the subject was be administered 240 mL water. No additional fluid intake was allowed until 1 hour after Compound 1 administration.
Cohort 1 subjects received a single 15.0 mg dose of a Compound 1 suspension on the morning of Days 1-14. Cohort 2 subjects received a single 30.0 mg dose of a Compound 1 suspension on the morning of Days 1-14. Cohort 3 subjects received a single 60.0 mg dose of a Compound 1 suspension on the morning of Days 1-14. For all cohorts, the last treatment was administered on the morning of Day 14.
Data were obtained from the blood plasma samples collected from each cohort according to the schedule provided.
Plasma samples were analyzed to determine Compound 1 concentrations using a validated assay method. Pharmacokinetic variables (including but not limited to Cmax, Tmax and AUC(0-last)) were calculated using non-compartmental analysis. PK parameters for Compound 1 were derived from the plasma concentration data using non-compartmental analysis with Phoenix™ WinNonlin® v 8.0 (Pharsight Corporation, USA).
Blood (Cohorts 1-3): For each cohort, blood samples were collected on Days 1, 2, 3, 4, 5, 6 and 14 at the following time points: Day 1 at pre-dose (0 hour), 0.25, 0.5, 0.75, 1, 1.5, 2, 2.5, 3, 4, 6, 8, 12, 16 h post-dose; Day 2 at pre-dose (24 hours), Day 3 at pre-dose (48 hours), Day 4 at pre-dose (72 hours), Day 5 at pre-dose (96 hours), Day 6 at pre-dose (120 hours); Day 14 at pre-dose 0.25, 0.5, 0.75, 1, 1.5, 2, 2.5, 3, 4, 6, 8, 12, 16, 24, 36, 48, and 72 hours. Trough level blood samples were collected on Days 2, 3, 4, 5, 6 and 14, prior to the morning dose administrations.
Descriptive statistics were calculated for plasma and urine PK parameter and concentration data and summarized by study day and time point. Arithmetic means, coefficient of variation (CV), standard deviation, median, minimum, and maximum values, and number of observations were calculated for all PK parameters and trough concentration data. Except for Tmax, the geometric mean, geometric standard deviation, and geometric CV were provided for all PK parameter and concentration data.

[2] = Safety and tolerability in the multiple escalating dose study in healthy subjects
Description: Adverse events (AEs) were monitored throughout the duration of the study.
To monitor for possible AEs, vital signs, hematology and clinical chemistry laboratory parameters, ECG readings, neurological examination findings, and EEG parameters and abnormal findings were recorded at each visit.

[3] = tested on: GABAA receptors in the brain; assay: Quantitative EEG (qEEG) alpha- and beta-band power in Phase 1 MAD trial
Description: Pharmacodynamic (PD) effects of first dose and steady state Compound 1 concentrations on wake electroencephalograms (EEGs) were studied. Standard 16 channel continuous EEGs were obtained at the following time points: Day-1, Day 1 (1 hour after dosing), and Day 14 (1 hour after dosing).
The effect of Compound 1 on the quantitative EEG (qEEG) was measured in a Phase 1 multiple ascending dose (MAD) trial to understand the pharmacodynamic effect of Compound 1 on GABAA receptor activation. The frequency and amplitude of the detected electrical signals in response to treatment with a brain-active compound provide insights into brain function and brain state (e.g., awake, deep sleep, etc.) or pharmacological response. For instance, changes in power in the beta-band frequency can be used as a pharmacodynamic biomarker of GABAA receptor activation in response to a brain active compound.
EEG was recorded for 5 minutes in quiet eyes open condition using a standard 10-20 EEG electrode placement system at pre-dose and 1, 2, 4, 8 and 24 hours after dosing. Each lead was referenced to the Oz electrode. Artifacts were removed via visual inspections. EEG spectra were computed using Fourier transformation. The alpha-band frequency was set to 8.5-12.5 Hz, the beta-band frequency was set to 12.5 to 30 Hz. The ratio between each post-dose value and the associated pre-dose value for each electrode was used to calculate the fold EEG change in each frequency band so that a ratio of 1 represents no change from baseline. The mean of the central 9 electrodes was used for each subject and timepoint for final analysis.

[4] = tested on: patients with severe major depressive disorder (MDD); assay: Open-label study in severe MDD, Part A efficacy (HAM-D); settings: for patients meeting the HAM-D Response or Remission criteria: Day 15
Description: The study is an open-label, study comprised of two dosing periods, Part A and Part B, during which patients were treated with an oral suspension of Compound 1. Part A was an open-label assessment of two dose levels of Compound 1 (45 mg qHS Cohort 1 and 80 mg qHS Cohort, i.e., once daily administration at bedtime) administered for 7 days inpatient followed by 7 days outpatient. Compound 1 was administered at 4 p.m. on Day 1 in order to collect post-dosing PK samples that could not be collected with qHS dosing.
(§1) In Part A, participants were administered daily doses of Compound 1 (45 mg Cohort and 80 mg Cohort) at 4 p.m. on Day 1 and qHS on all other study days for 7 days inpatient followed by 7 days outpatient (with subsequent Cohorts receiving up to 120 mg qHS). Participants checked into the clinic on Day 1. During this period the following assessments were performed: adverse event assessments, vital signs, physical examinations, blood and urine samples for safety assessments, ECGs, C-SSRS assessments, blood samples for PK, and efficacy assessments (HAM-D, MADRS, HAM-A, CGI [CGI-S and CGI-I], PSQI, and SDQ). Baseline assessments occurred on Day 1 prior to administration of study drug. On Day 8, prior to discharge, participants were supplied with sufficient Compound 1 to complete 7 days of dosing.
Patients were administered daily doses of Compound 1 for 7 days inpatient followed by 7 days outpatient.
In the 45 mg Cohort, patients were administered once daily dose of 45 mg of Compound 1 at bedtime for 7 days inpatient followed by once daily dose of 45 mg of Compound 1 at bedtime for 7 days outpatient.
In the 80 mg Cohort, patients were administered once daily dose of 80 mg of Compound 1 at bedtime for 7 days inpatient followed by once daily dose of 80 mg of Compound 1 at bedtime for 7 days outpatient.
Part A: In Part A, HAM-D, MADRS, HAM-A, CGI-S, and CGI-I values were collected in the morning of Days 1, 2, 3, 4, 5, 6, 7, 8, 15, 21 and 28. PSQI and SDQ values will be collected on Days 1, 8, 15, 21 and 28. Part B: In Part B, HAM-D, MADRS, HAM-A, CGI-S, CGI-I, PSQI and SDQ values will be collected on the days described for Part A.
HAM-D Response was defined as a reduction from baseline of ≥50% in total HAM-D score. HAM-D remission was defined as a total HAM-D score of ≤7.
Efficacy analysis: For both parts of the clinical trial, the HAM-D total score and change from baseline values will be summarized by treatment group and time point. In addition, the change from baseline in HAM-D total score will also be analyzed using paired t-tests or similar methods. The null hypothesis of this test is that the mean difference in HAM-D total score between paired observations (i.e., pre- and post-treatment) is zero. Similar analysis methods will be used for all secondary and exploratory efficacy variables.

[5] = Safety and tolerability in MDD patients (Part A); settings: 80 mg once daily for 14 days in MDD patients
Description: as §1

[6] = Cohort 1 (15.0 mg QD), Day 14 steady state, Geo Mean
[7] = Cohort 1 (15.0 mg QD), Day 14 steady state, Mean
[8] = Cohort 1 (15.0 mg QD), Day 14 steady state, Median
[9] = Cohort 2 (30.0 mg QD), Day 14 steady state, Geo Mean
[10] = Cohort 2 (30.0 mg QD), Day 14 steady state, Mean
[11] = Cohort 3 (60.0 mg QD), Day 14 steady state, Geo Mean
[12] = Cohorts 1-3, 15-60 mg QD for 14 days
[13] = 30 mg, one hour post-dose on Day 1, healthy volunteers
[14] = 60 mg, one hour post-dose on Day 1, healthy volunteers
[15] = healthy volunteers, days 1 and 14

COC[C@@]1(O)CC[C@@]2(C)[C@@H](CC[C@@H]3[C@@H]2CC[C@]2(C)[C@@H](C(=O)Cn4ccnc4)CC[C@@H]32)C1 [Compound 1, 3α-Hydroxy-3β-methoxymethyl-21-(1′-imidazolyl)-5α-pregnan-20-one]
accumulation factor of the dosing interval (ratio of AUCDay14/AUCDay1) ([1]; Cohort 1 (15 mg QD) and Cohort 2 (30 mg QD)): approximately 1.25 | CLss/F [1, 6]: 30.497 L/h | t1/2 [1, 6]: 14.613 h | CLss/F [1, 7]: 31.415 L/h | t1/2 [1, 7]: 14.772 h | AUCinf [1, 8]: 595.2 ng·h/mL | CLss/F [1, 8]: 30.41 L/h | CLss/F [1, 9]: 30.178 L/h | t1/2 [1, 9]: 12.647 h | CLss/F [1, 10]: 30.949 L/h | t1/2 [1, 10]: 12.701 h | CLss/F ([1]; Cohort 2 (30.0 mg QD), Day 14 steady state, Median): 30.12 L/h | accumulation factor of the dosing interval (ratio of AUCDay14/AUCDay1) ([1]; Cohort 3 (60 mg QD)): 0.89 | CLss/F [1, 11]: 30.398 L/h | t1/2 [1, 11]: 12.164 h | CLss/F ([1]; Cohort 3 (60.0 mg QD), Day 14 steady state, Mean): 32.142 L/h | CLss/F ([1]; Cohort 3 (60.0 mg QD), Day 14 steady state, Median): 28.45 L/h | AUC0-tau ([1]; human, in vivo, 60 mg): 2356.80 ng·h/mL | steady state clearance ([1]; human, in vivo, 60 mg): approximately 31 L/hour | absorption ([1]; in vivo, po): rapid absorption | Serious Adverse Events [2, 12]: no Serious Adverse Events | vital sign, ECG, or lab abnormalities [2, 12]: no clinically relevant vital sign, ECG, or lab abnormalities | maximum tolerated dose and serious adverse events ([2]; MAD study, after a dose of 60 mg, beta power increase up to 2.8-fold): without achieving a maximum tolerated dose (MTD) or demonstrating any serious adverse events (SAEs) | effects on the qEEG alpha and beta power at Day 14 ([3]; 30 mg and 60 mg QD): sustained | average increase in qEEG alpha power compared to baseline [3, 13]: approximately 1.5 fold | average increase in qEEG beta power compared to baseline [3, 13]: ~1.6 fold | increase in qEEG alpha power compared to baseline [3, 14]: 2.6 fold | increase in qEEG beta power compared to baseline [3, 14]: 2.8 fold | increases in beta power ([3]; MAD study, up to 60 mg): up to 2.8 fold | power of the alpha-band frequency (qEEG) [3, 15]: marked increases; also recorded: markedly increase | power of the beta-band frequency (qEEG) [3, 15]: marked increases; also recorded: markedly increase | patients meeting the HAM-D Response or Remission criterion ([4]; 45 mg Cohort (qHS), Day 7): 11 of the 13 | patients meeting the HAM-D Response or Remission criteria ([4]; 45 mg Cohort (qHS)): 8 of the 13 | patients meeting the HAM-D Response or Remission criteria ([4]; 80 mg Cohort (qHS)): 6 of the 7 | Efficacy (reduction Mean Change from Baseline in HAM-D score) ([4]; as monotherapy (no background antidepressant) and in combination with another antidepressant): observed | symptoms of MDD ([4]; daily dose of 45 mg or 80 mg): reduced symptoms of moderate to severe MDD | Efficacy (reduction Mean Change from Baseline in HAM-D score) ([4]; patients in first course of antidepressant treatment and patients that failed previous courses): observed | tolerability [5]: well tolerated with no change in Adverse Event profile; also recorded: well-tolerated
